Like-named read-outs stand apart in the source and are kept apart here.
Target: T1, chimeric human H3 receptor (Homo sapiens, UniProt Q9Y5N1)
T1 construct: made in house; host or cells: Sf9 insect cells (baculovirus); P2 membrane preparation
Experiment: Chimeric human H3 receptor screening GTP binding assay (inhibition of histamine-stimulated GTP-gamma35S binding, Example 8)
Type: biochemical
Conditions: 4 μM of the compound, 1 μM histamine, read-out: percent inhibition of the signal obtained with 1 μM histamine
How it was run: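 Sf9 membranes co-expressing chimeric human H3 receptor and heterotrimeric G-protein, 35 μg per reaction, incubated 60 min at room temperature with 4 μM compound, 1 μM histamine, 10 μM GDP and […] GTP-gamma35S at pH 7.4. Filter-bound radioactivity counted. Result expressed as percent inhibition of the histamine signal after subtracting non-specific binding (10 μM GTP-gammaS).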

T1 sequence (Q9Y5N1 with tags, fused parts or gaps): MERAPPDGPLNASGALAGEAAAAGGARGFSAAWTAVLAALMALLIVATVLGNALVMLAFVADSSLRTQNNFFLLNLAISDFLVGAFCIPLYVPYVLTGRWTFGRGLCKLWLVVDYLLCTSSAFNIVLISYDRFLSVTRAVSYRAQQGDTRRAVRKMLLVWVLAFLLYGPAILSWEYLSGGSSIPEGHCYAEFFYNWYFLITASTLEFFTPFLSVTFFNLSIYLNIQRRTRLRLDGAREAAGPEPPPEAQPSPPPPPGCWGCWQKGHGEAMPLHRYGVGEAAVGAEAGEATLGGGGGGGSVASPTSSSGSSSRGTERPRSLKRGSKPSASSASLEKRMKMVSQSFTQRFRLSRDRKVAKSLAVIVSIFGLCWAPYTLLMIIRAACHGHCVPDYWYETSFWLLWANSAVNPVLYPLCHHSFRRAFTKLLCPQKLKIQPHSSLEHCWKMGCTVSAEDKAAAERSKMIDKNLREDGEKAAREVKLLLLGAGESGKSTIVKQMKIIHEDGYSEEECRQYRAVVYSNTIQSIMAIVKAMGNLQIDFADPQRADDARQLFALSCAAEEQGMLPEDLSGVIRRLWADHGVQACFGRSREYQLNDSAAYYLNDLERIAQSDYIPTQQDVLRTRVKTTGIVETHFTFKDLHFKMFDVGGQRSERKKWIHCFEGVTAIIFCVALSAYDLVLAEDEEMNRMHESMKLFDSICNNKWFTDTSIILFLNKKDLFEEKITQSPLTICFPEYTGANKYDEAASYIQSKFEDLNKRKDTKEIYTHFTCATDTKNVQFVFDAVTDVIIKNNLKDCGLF

inhibition at 4 µM ("†" in Ki of Table II) [%]	inhibition at 4 µM (Table II "Ki", symbol †) [%]	Structure (SMILES)
≥ 90		Cc1ccc(-c2ccc3c(c2)CCN(CC(=O)N2CCN(C4CCCCC4)CC2)C3)cc1C [Compound 449, 2-[2-(4-cyclohexylpiperazin-1-yl)-2-oxoethyl]-6-(3,4-dimethylphenyl)-1,2,3,4-tetrahydroisoquinoline]
	≥ 90	CCCOc1ccc(-c2ccc3c(c2)CCN(CC(=O)N2CCN(C4CCCCC4)CC2)C3)cc1 [Compound 546, 2-[2-(4-cyclohexylpiperazin-1-yl)-2-oxoethyl]-6-(4-propoxyphenyl)-1,2,3,4-tetrahydroisoquinoline]
	≥ 90	COc1ccc(-c2ccc3c(c2)CCN(CC(=O)N2CCN(C(C)C)CC2)C3)cc1C [Compound 543, 2-[2-(4-isopropylpiperazin-1-yl)-2-oxoethyl]-6-(4-methoxy-3-methylphenyl)-1,2,3,4-tetrahydroisoquinoline]
≥ 90		O=C(CN1CCc2cc(-c3ccc(OC(F)(F)F)cc3)ccc2C1)N1CCN(C2CCC2)CC1 [Compound 478, 2-[2-(4-cyclobutylpiperazin-1-yl)-2-oxoethyl]-6-[4-(trifluoromethoxy)phenyl]-1,2,3,4-tetrahydroisoquinoline]
	≥ 90	C[C@H]1CN(C(=O)CN2CCc3cc(-c4cncnc4)ccc3C2)CCN1C1CCOCC1 [Compound 622, 2-{2-[(3S)-3-methyl-4-(tetrahydro-2H-pyran-4-yl)piperazin-1-yl]-2-oxoethyl}-6-pyrimidin-5-yl-1,2,3,4-tetrahydroisoquinoline]
	≥ 90	COC1CCCN(c2ccc3c(n2)CCN(CC(=O)N2CCN(C4CCC4)CC2)C3)C1 (stereo not shown) [Compound 671, 6-[2-(4-cyclobutylpiperazin-1-yl)-2-oxoethyl]-2-(3-methoxypiperidin-1-yl)-5,6,7,8-tetrahydro-1,6-naphthyridine]
	≥ 90	CC(C)N1CCN(C(=O)CN2CCc3cc(-c4cc(F)ccc4F)ccc3C2)CC1 [Compound 585, 6-(2,5-difluorophenyl)-2-[2-(4-isopropylpiperazin-1-yl)-2-oxoethyl]-1,2,3,4-tetrahydroisoquinoline]
≥ 90		Cc1cc(C)cc(-c2ccc3c(c2)CCN(CC(=O)N2CCN(C4CCCCC4)CC2)C3)c1 [Compound 457, 2-[2-(4-cyclohexylpiperazin-1-yl)-2-oxoethyl]-6-(3,5-dimethylphenyl)-1,2,3,4-tetrahydroisoquinoline]
	≥ 90	O=C(CN1CCc2cc(-c3ccc(F)cc3F)ccc2C1)N1CCN(C2CCC2)CC1 [Compound 586, 2-[2-(4-cyclobutylpiperazin-1-yl)-2-oxoethyl]-6-(2,4-difluorophenyl)-1,2,3,4-tetrahydroisoquinoline]
≥ 90		Cc1ccc(-c2ccc3c(c2)CCN(CC(=O)N2CCN(C4CCC4)CC2)C3)c(F)c1 [Compound 420, 2-[2-(4-cyclobutylpiperazin-1-yl)-2-oxoethyl]-6-(2-fluoro-4-methylphenyl)-1,2,3,4-tetrahydroisoquinoline]
	≥ 90	CC(C)N1CCN(C(=O)CN2CCc3cc(-c4cccc(N(C)C)c4)ccc3C2)CC1 [Compound 539, 3-{2-[2-(4-isopropylpiperazin-1-yl)-2-oxoethyl]-1,2,3,4-tetrahydroisoquinolin-6-yl}-N,N-dimethylaniline]
	≥ 90	CCCCN1CCN(C(=O)CN2CCc3cc(-c4cncnc4)ccc3C2)CC1 [Compound 604, 2-[2-(4-butylpiperazin-1-yl)-2-oxoethyl]-6-pyrimidin-5-yl-1,2,3,4-tetrahydroisoquinoline]
≥ 90		CCCc1ccc(-c2ccc3c(c2)CCN(CC(=O)N2CCN(C4CCCCC4)CC2)C3)cc1 [Compound 465, 2-[2-(4-cyclohexylpiperazin-1-yl)-2-oxoethyl]-6-(4-propylphenyl)-1,2,3,4-tetrahydroisoquinoline]
≥ 90		CCCCc1ccc(-c2ccc3c(c2)CCN(CC(=O)N2CCN(C4CCCC4)CC2)C3)cc1 [Compound 452, 6-(4-butylphenyl)-2-[2-(4-cyclopentylpiperazin-1-yl)-2-oxoethyl]-1,2,3,4-tetrahydroisoquinoline]
	≥ 90	O=C(CN1CCc2cc(-c3ccccc3Oc3ccccc3)ccc2C1)N1CCN(C2CCCCC2)CC1 [Compound 577, 2-[2-(4-cyclohexylpiperazin-1-yl)-2-oxoethyl]-6-(2-phenoxyphenyl)-1,2,3,4-tetrahydroisoquinoline]
≥ 90		Cc1cccc(-c2ccc3c(c2)CCN(CC(=O)N2CCN(C4CCCC4)CC2)C3)c1 [Compound 433, 2-[2-(4-cyclopentylpiperazin-1-yl)-2-oxoethyl]-6-(3-methylphenyl)-1,2,3,4-tetrahydroisoquinoline]
	≥ 90	O=C(CN1CCc2cc(-c3cccc(OC(F)(F)F)c3)ccc2C1)N1CCN(C2CCCC2)CC1 [Compound 491, 2-[2-(4-cyclopentylpiperazin-1-yl)-2-oxoethyl]-6-[3-(trifluoromethoxy)phenyl]-1,2,3,4-tetrahydroisoquinoline]
≥ 90		CC(C)c1ccc(-c2ccc3c(c2)CCN(CC(=O)N2CCN(C4CCCC4)CC2)C3)cc1 [Compound 444, 2-[2-(4-cyclopentylpiperazin-1-yl)-2-oxoethyl]-6-(4-isopropylphenyl)-1,2,3,4-tetrahydroisoquinoline]
	≥ 90	O=C(CN1CCc2cc(-c3ccc(Oc4ccccc4)cc3)ccc2C1)N1CCN(C2CCCC2)CC1 [Compound 487, 2-[2-(4-cyclopentylpiperazin-1-yl)-2-oxoethyl]-6-(4-phenoxyphenyl)-1,2,3,4-tetrahydroisoquinoline]
≥ 90		O=C(CN1CCc2cc(-c3cccc(Cl)c3)ccc2C1)N1CCN(C2CCCC2)CC1 [Compound 402, 6-(3-chlorophenyl)-2-[2-(4-cyclopentylpiperazin-1-yl)-2-oxoethyl]-1,2,3,4-tetrahydroisoquinoline]
	≥ 90	O=C(CN1CCc2cc(-c3ccccc3Oc3ccccc3)ccc2C1)N1CCN(C2CCCC2)CC1 [Compound 576, 2-[2-(4-cyclopentylpiperazin-1-yl)-2-oxoethyl]-6-(2-phenoxyphenyl)-1,2,3,4-tetrahydroisoquinoline]
	≥ 90	COc1ccc(-c2ccc(-c3ccc4c(c3)CCN(CC(=O)N3CCN(C5CCCC5)CC3)C4)cc2)cc1 [Compound 499, 2-[2-(4-cyclopentylpiperazin-1-yl)-2-oxoethyl]-6-(4′-methoxybiphenyl-4-yl)-1,2,3,4-tetrahydroisoquinoline]
	≥ 90	COc1ccc(-c2ccc3c(c2)CCN(CC(=O)N2CCN(C4CCCC4)CC2)C3)c(OC)c1 [Compound 564, 2-[2-(4-cyclopentylpiperazin-1-yl)-2-oxoethyl]-6-(2,4-dimethoxyphenyl)-1,2,3,4-tetrahydroisoquinoline]
≥ 90		O=C(CN1CCc2cc(-c3ccc(F)cc3)ccc2C1)N1CCN(C2CCCCC2)CC1 [Compound 409, 2-[2-(4-cyclohexylpiperazin-1-yl)-2-oxoethyl]-6-(4-fluorophenyl)-1,2,3,4-tetrahydroisoquinoline]
≥ 90		O=C(CN1CCc2cc(-c3ccc(Cl)cc3)ccc2C1)N1CCN(C2CCCC2)CC1 [Compound 405, 6-(4-chlorophenyl)-2-[2-(4-cyclopentylpiperazin-1-yl)-2-oxoethyl]-1,2,3,4-tetrahydroisoquinoline]

From patent US20110082130A1 (LIGAND PHARMACEUTICALS, INC., priority 2006, published 2011)
